Reference: patent US5326566A, “Use of dibutyl adipate and isopropyl myristate in topical and transdermal products” (Bristol-Myers Squibb Company, priority 1993, dated 1994)
Like-named read-outs stand apart in the source and are kept apart here.

How the values were obtained:
[1] = literature (Martindale) for dimethyl sulfoxide; cited from earlier work
[2] = Description: Only skin that appeared normal was used.
Halobetasol propionate is commercially available by Bristol-Myers Squibb as ULTRAVATE® Cream and ULTRAVATE® Ointment. ULTRAVATE® Cream is an oil-in-water emulsion containing isopropyl palmitate and isopropyl isostearate as emollients. The ULTRAVATE® Ointment is a nonaqueous emulsion of propylene glycol in a petrolatum base.
In a different human skin study, the in vitro skin penetration of halobetasol propionate from ULTRAVATE® Ointment, FN8-1114-16 cream and FN8-1114-13 cream, was evaluated (see Table 3, Study II). ULTRAVATE® Ointment was used as a control in order to normalize the data, and to assist in the comparison of skin penetration of different formulations when evaluated for skin penetration in different human skin.

[3] = applied topically; more pronounced in occluded condition; cited from earlier work
[4] = prior art skin permeation enhancers; cited from earlier work
[5] = system: utriculi of rhino mouse skin; experiment: Rhino mouse utriculi model (efficacy of tretinoin formulations, reduction of utriculi diameter); format: in vivo; settings: topical, once a day for five days, FIG. 4
Description: Female rhino mice were obtained from the Skin and Cancer Hospital, Temple University, Philadelphia, Pennsylvania. Upon receipt, the rhino mice were treated with an anti-parasitic agent, trichlorfon (COMBOT®), to rid them of pinworms. It was administered in their drinking water for two weeks. An additional two weeks was allowed to pass without COMBOT® treatment before mice were placed on study. Animals were housed in accordance with the National Institute of Health guidelines and had free access to food and water. At the time of the study initiation, the mice were 9-14 weeks old.
The mice were individually housed in a plastic shoe box cage with corn cob bedding and placed in rooms illuminated with yellow lights, cycled for 12 hours on and 12 hours off during the study. […]
The sheets were then evaluated for changes in the sizes of the utriculi as follows: The maximum diameter of 20 representative utriculi per tissue sample were measured, using an IBM PC computer image measurement program (Microscience, Inc., Federal Way, Washington D.C.) and an Olympus microscope (200×magnification). Retinoid effects were evaluated as a percent reduction in uterine diameter by comparing mean diameter of the vehicle treated groups to that of formulation treated groups.

[6] = Saturation / degree of unsaturation of the oil phase; format: physicochemical; settings: 0.5 wt % DBA and 10 wt % IPM as solvents in the oil phase
Excerpt: A degree of unsaturation of 1.5 means that the amount of DBA, or DBA and IPM, present in the oil phase is one and a half times the amount required to dissolve the halobetasol propionate in the oil phase of the composition so that the final oil phase of the composition is saturated with respect to the halobetasol propionate, plus contains a 50% excess of such solvent(s).
An unsaturation value of 1.5 means the oil phase of the final composition contains more of the solvent system of the present invention than the minimum required to make such oil phase saturated, saturation of course being relative to the halobetasol propionate. The 1.5 unsaturation value indicates the oil phase of the final composition contains 11/2 times the amount of solvent system required to produce a final composition the oil phase of which is saturated with respect to halobetasol propionate (in other words, the oil phase of the final composition contains a 50% surplus of the solvent system of the invention).

CN(C)C=O [Dimethyl formamide, dimethyl formamide]
side effects, in words [1]: cause a sensation of burning and erythema on the skin

CC(O)CO (stereo not drawn) [PG, propylene glycol]
skin penetration enhancement of halobetasol propionate by solvent/enhancer, in words [2]: does not improve the skin penetration of halobetasol propionate any further
irritation/sensitization, in words [3]: can be a sensitizer and irritant when applied topically

CCCCCCCCCC[S+](C)[O-] (stereo not drawn) [decyl methyl sulfoxide]
skin permeation of oil-soluble drugs, in words [4]: generally do not increase skin permeation of oil-soluble drugs

CCCCOC(=O)CCCCC(=O)OCCCC [dibutyl adipate]
efficacy of tretinoin formulations (rank order / activity in words) [5]: increases the efficacy and hence the topical bioavailability of tretinoin

C[S+](C)[O-] [dimethyl sulfoxide]
side effects, in words [1]: causes in animals a foul taste and body odor, burning and erythema on the skin, a reduction in the relucency of the lens cortex and tissue necrosis

CCC(=O)O[C@]1(C(=O)CCl)[C@@H](C)C[C@H]2[C@@H]3C[C@H](F)C4=CC(=O)C=C[C@]4(C)[C@@]3(F)[C@@H](O)C[C@@]21C [halobetasol propionate]
saturated solution of halobetasol propionate in the oil phase [6]: 0.05 wt %

CC(C)CCCCCCCCCCCCCCC(=O)OC(C)C [isopropyl isostearate]
skin penetration enhancement of halobetasol propionate by solvent/enhancer, in words [2]: did not enhance the penetration of halobetasol propionate from ULTRAVATE® Cream as compared to ULTRAVATE® Ointment

CCCCCCCCCCCCCCCC(=O)OC(C)C [isopropyl palmitate]
skin penetration enhancement of halobetasol propionate by solvent/enhancer, in words ([2]; conclusions from Study I and Study II): did not enhance the penetration of halobetasol propionate from ULTRAVATE® Cream as compared to ULTRAVATE® Ointment
